# Source: patent publication US20060276464A1, “Diarylsulfone sulfonamides and use thereof” (Wyeth, priority 2005, published 2006)
# Where two headings read alike, the source gives them in different places.
# Molecular target: T1, SFRP-1 (Homo sapiens, UniProt Q8N474)
# T1 sequence (Q8N474 32-314): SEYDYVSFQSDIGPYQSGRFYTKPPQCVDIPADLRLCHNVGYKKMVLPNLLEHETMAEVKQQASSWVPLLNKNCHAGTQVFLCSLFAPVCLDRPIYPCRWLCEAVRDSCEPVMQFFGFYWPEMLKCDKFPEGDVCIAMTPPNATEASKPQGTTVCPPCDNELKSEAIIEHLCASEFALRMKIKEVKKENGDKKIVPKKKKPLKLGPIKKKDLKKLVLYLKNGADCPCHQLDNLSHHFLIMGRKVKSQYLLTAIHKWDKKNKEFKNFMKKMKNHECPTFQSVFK
# Experiment: Cell-based assay for in vitro measurement of SFRP-1/SARP2 antagonist activity (U2OS cells co-transfected with 16x TCF-tk-Luciferase reporter, Wnt and hSFRP-1);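 further: U2OS cells co-transfected with a TCF-tk luciferase reporter, a Wnt vector, hSFRP-1 or empty vector and CMV-βgal, luciferase luminescence read in cell lysates alongside βgal activity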
# Conditions: U2OS
# [1] = read-out: Fold Induction with SFRP-1, Conc 15 μM, with SFRP-1, fold induction over SFRP-1 control, single dose
# [2] = read-out: Fold Induction without SFRP-1, Conc 15 μM, without SFRP-1, single dose
fold induction at 15 µM [1],fold induction at 15 µM [2],"fold induction at 60 µM (read-out: Fold Induction with SFRP-1, Conc 60 μM, with SFRP-1, fold induction over SFRP-1 control, single dose)","fold induction at 60 µM (read-out: Fold Induction without SFRP-1, Conc 60 μM, without SFRP-1, single dose)",SMILES
1.8,1.2,–,–,"Cc1ccc(S(=O)(=O)c2ccccc2)cc1S(=O)(=O)NC1CCCCC1 [Example 400, N-cyclohexyl-2-methyl-5-(phenylsulfonyl)benzenesulfonamide]"
1.6,1.1,–,–,"Cc1ccc(S(=O)(=O)c2ccccc2)cc1S(=O)(=O)NCC(F)(F)F [Example 401, 2-methyl-5-(phenylsulfonyl)-N-(2,2,2-trifluoroethyl)benzenesulfonamide]"
1.2,1.1,–,–,"Cc1ccc(S(=O)(=O)c2ccccc2)cc1S(=O)(=O)NC(C)(C)CO [Example 404, N-(2-hydroxy-1,1-dimethylethyl)-2-methyl-5-(phenylsulfonyl)benzenesulfonamide]"
1.2,1,–,–,"Cc1ccc(S(=O)(=O)c2ccc(C(C)(O)Cc3ccccc3)cc2)cc1S(=O)(=O)NCCc1ccccn1 (stereo not shown) [Example 408, 5-{[4-(1-hydroxy-1-methyl-2-phenylethyl)phenyl]sulfonyl}-2-methyl-N-(2-pyridin-2-ylethyl)benzenesulfonamide]"
1.6,1,–,–,"Cc1ccc(S(=O)(=O)c2ccccc2)cc1S(=O)(=O)NC1CC(C)(C)NC(C)(C)C1 [Example 411, 2-methyl-5-(phenylsulfonyl)-N-(2,2,6,6-tetramethylpiperidin-4-yl)benzenesulfonamide]"
2,1.3,–,–,"Cc1ccc(S(=O)(=O)c2ccccc2)cc1S(=O)(=O)NC1CCN(Cc2ccccc2)C1 (stereo not shown) [Example 414, N-(1-benzylpyrrolidin-3-yl)-2-methyl-5-(phenylsulfonyl)benzenesulfonamide]"
1.5,1.2,–,–,"Cc1ccc(S(=O)(=O)c2ccccc2)cc1S(=O)(=O)NC1CCc2ccccc21 (stereo not shown) [Example 415, N-(2,3-dihydro-1H-inden-1-yl)-2-methyl-5-(phenylsulfonyl)benzenesulfonamide]"
2.1,1.2,–,–,"Cc1ccc(S(=O)(=O)c2ccccc2)cc1S(=O)(=O)NC1CC1 [Example 424, N-cyclopropyl-2-methyl-5-(phenylsulfonyl)benzenesulfonamide]"
2.5,1.1,–,–,"Cc1ccc(S(=O)(=O)c2ccc(-c3ccccc3)cc2)cc1S(=O)(=O)NCCc1ccccn1 [Example 433, 5-(biphenyl-4-ylsulfonyl)-2-methyl-N-(2-pyridin-2-ylethyl)benzenesulfonamide]"
2.1,1.1,–,–,"Cc1ccc(S(=O)(=O)c2cccc(-c3ccccc3)c2)cc1S(=O)(=O)NCCc1ccccn1 [Example 434, 5-(biphenyl-3-ylsulfonyl)-2-methyl-N-(2-pyridin-2-ylethyl)benzenesulfonamide]"
3,1.1,–,–,"Cc1ccc(S(=O)(=O)c2ccccc2)cc1S(=O)(=O)NC1CCNCC1 [Example 447, 2-methyl-5-(phenylsulfonyl)-N-piperidin-4-ylbenzenesulfonamide]"
1.6,0.9,–,–,"O=S(=O)(NCCc1ccccn1)c1cc(S(=O)(=O)c2ccccc2)ccc1C1CCCCC1 [Example 459, 2-cyclohexyl-5-(phenylsulfonyl)-N-(2-pyridin-2-ylethyl)benzenesulfonamide]"

# More lines, now with the values behind:
SMILES,fold induction at 15 µM [1],fold induction at 15 µM [2],"fold induction at 60 µM (read-out: Fold Induction with SFRP-1, Conc 60 μM, with SFRP-1, fold induction over SFRP-1 control, single dose)","fold induction at 60 µM (read-out: Fold Induction without SFRP-1, Conc 60 μM, without SFRP-1, single dose)"
"CC(=O)c1ccc(S(=O)(=O)c2ccc(C)c(S(=O)(=O)NCCc3ccccn3)c2)cc1 [Example 403, 5-[(4-acetylphenyl)sulfonyl]-2-methyl-N-(2-pyridin-2-ylethyl)benzenesulfonamide]",2.5,1.1,–,–
"Cc1ccc(S(=O)(=O)c2ccc(C(C)(C)O)cc2)cc1S(=O)(=O)NCCc1ccccn1 [Example 405, 5-{[4-(1-hydroxy-1-methylethyl)phenyl]sulfonyl}-2-methyl-N-(2-pyridin-2-ylethyl)benzenesulfonamide]",2.1,1.1,–,–
"Cc1ccc(S(=O)(=O)c2ccc(C(C)(O)C3CCCCC3)cc2)cc1S(=O)(=O)NCCc1ccccn1 (stereo not shown) [Example 406, 5-{[4-(1-cyclohexyl-1-hydroxyethyl)phenyl]sulfonyl}-2-methyl-N-(2-pyridin-2-ylethyl)benzenesulfonamid]",–,–,1.2,0.9
"Cc1ccc(S(=O)(=O)c2ccc(C(C)(O)c3ccccc3)cc2)cc1S(=O)(=O)NCCc1ccccn1 (stereo not shown) [Example 407, 5-{[4-(1-hydroxy-1-phenylethyl)phenyl]sulfonyl}-2-methyl-N-(2-pyridin-2-ylethyl)benzenesulfonamide]",1.2,0.9,–,–
"Cc1ccc(S(=O)(=O)c2cccc(C#N)c2)cc1S(=O)(=O)NCCc1ccccn1 [Example 409, 5-[(3-cyanophenyl)sulfonyl]-2-methyl-N-(2-pyridin-2-ylethyl)benzenesulfonamide]",2.2,1.3,–,–
"Cc1ccc(S(=O)(=O)c2cccc3ccccc23)cc1S(=O)(=O)NCCc1ccccn1 [Example 410, 2-methyl-5-(1-naphthylsulfonyl)-N-(2-pyridin-2-ylethyl)benzenesulfonamide]",2.7,1.3,–,–
"Cc1ccc(S(=O)(=O)c2cccc(O)c2)cc1S(=O)(=O)NCCc1ccccn1 [Example 416, 5-[(3-hydroxyphenyl)sulfonyl]-2-methyl-N-(2-pyridin-2-ylethyl)benzenesulfonamide]",1.9,0.9,–,–
"Cc1ccc(S(=O)(=O)c2cc(F)cc(F)c2)cc1S(=O)(=O)NCCc1ccccn1 [Example 417, 5-[(3,5-difluorophenyl)sulfonyl]-2-methyl-N-(2-pyridin-2-ylethyl)benzenesulfonamide]",1.8,1,–,–
"CC(=O)c1cccc(S(=O)(=O)c2ccc(C)c(S(=O)(=O)NCCc3ccccn3)c2)c1 [Example 419, 5-[(3-acetylphenyl)sulfonyl]-2-methyl-N-(2-pyridin-2-ylethyl)benzenesulfonamide]",2.5,1.3,–,–
"Cc1ccc(S(=O)(=O)c2cccnc2)cc1S(=O)(=O)NCCc1ccccn1 [Example 426, 2-methyl-N-(2-pyridin-2-ylethyl)-5-(pyridin-3-ylsulfonyl)benzenesulfonamide]",1.3,0.8,–,–
"Cc1ccc(S(=O)(=O)c2ccc(C#N)cc2)cc1S(=O)(=O)NCCc1ccccn1 [Example 428, 5-[(4-cyanophenyl)sulfonyl]-2-methyl-N-(2-pyridin-2-ylethyl)benzenesulfonamide]",1.3,0.8,–,–
"CCS(=O)(=O)c1cccc(S(=O)(=O)c2ccc(C)c(S(=O)(=O)NCCc3ccccn3)c2)c1 [Example 429, 5-{[3-(ethylsulfonyl)phenyl]sulfonyl}-2-methyl-N-(2-pyridin-2-ylethyl)benzenesulfonamide]",0.9,0.8,–,–
"Cc1ccc(S(=O)(=O)c2ccccc2C)cc1S(=O)(=O)NCCc1ccccn1 [Example 430, 2-methyl-5-[(2-methylphenyl)sulfonyl]-N-(2-pyridin-2-ylethyl)benzenesulfonamide]",1.7,0.8,–,–
"CCc1ccccc1S(=O)(=O)c1ccc(C)c(S(=O)(=O)NCCc2ccccn2)c1 [Example 431, 5-[(2-ethylphenyl)sulfonyl]-2-methyl-N-(2-pyridin-2-ylethyl)benzenesulfonamide]",1.7,0.8,–,–
"Cc1ccc(S(=O)(=O)c2ccccc2-c2ccccc2)cc1S(=O)(=O)NCCc1ccccn1 [Example 432, 5-(biphenyl-2-ylsulfonyl)-2-methyl-N-(2-pyridin-2-ylethyl)benzenesulfonamide]",1.9,0.9,–,–
"Cc1ccc(S(=O)(=O)c2ccc(C(C)(C)C)cc2)cc1S(=O)(=O)NCCc1ccccn1 [Example 438, 5-[(4-tert-butylphenyl)sulfonyl]-2-methyl-N-(2-pyridin-2-ylethyl)benzenesulfonamide]",1.6,1,–,–
"CC(C)c1ccc(S(=O)(=O)c2ccc(F)cc2)cc1S(=O)(=O)NC[C@@H](C)c1ccccc1 [Example 444, 5-[(4-fluorophenyl)sulfonyl]-2-isopropyl-N-[(2S)-2-phenylpropyl]benzenesulfonamide]",1.4,1.1,–,–
"CNc1ccc(S(=O)(=O)c2ccc(C(C)C)c(S(=O)(=O)NCCn3ccnc3)c2)cc1 [Example 451, N-[2-(1H-imidazol-1-yl)ethyl]-2-isopropyl-5-{[4-(methylamino)phenyl]sulfonyl)benzenesulfonamide]",3.7,1.1,–,–
"Cc1cc(C)cc(S(=O)(=O)c2ccc(C(C)C)c(S(=O)(=O)NCCc3ccccn3)c2)c1 [Example 454, 5-[(3,5-dimethylphenyl)sulfonyl]-2-isopropyl-N-(2-pyridin-2-ylethyl)benzenesulfonamide]",1.7,1.1,–,–
"CC(C)c1ccc(S(=O)(=O)c2cc(F)cc(F)c2)cc1S(=O)(=O)NCCc1ccccn1 [Example 458, 5-[(3,5-difluorophenyl)sulfonyl]-2-isopropyl-N-(2-pyridin-2-ylethyl)benzenesulfonamide]",2.9,0.9,–,–
